# Legend:
# [1] = target: T1, OleD (Streptomyces antibioticus, UniProt Q53685, P55A/R82V/R83E/T84P); assay: FRET DLEnCA, cell-free transcription/translation-derived OleD, fluorescence readout; format: biochemical; details: all components present; chemical 1 mM, UDP-Glc 5 μM, FRET probe 250 nM
# T1 construct: made in house; host or cells: PURExpress In Vitro Protein Synthesis Kit (NEB E6800L), cell-free transcription/translation, linear DNA with T7 promoter
# Experimental: FIG. 3A-FIG. 3D. DNA-Linked Enzyme-Coupled Assay using cell-free transcription/translation system. A. UDP-Glc was titrated into reactions containing 250 nM FRET probe, TbGT, and a cell-free transcription/translation system. After 3 hours incubation at 37° C., probe was digested with MfeI and resulting digests were analyzed using fluorescent spectrometry (n=6, error bars=standard error). B. DNA encoding OleD (5 nM) was incubated in a cell-free transcription/translation system for 3 hours at 37° C., followed by the addition of UDP-Glucose (5 μM) and kaempferol (1 mM). After a subsequent incubation of 3 hours, TbGT and FRET probe (250 nM) were added. Following MfeI addition, fluorescence formation was monitored using fluorometry. […] Digests were analyzed using qPCR. […]
# Assays were performed using 250 nM fluorescent probe (Sequence provided in FIG. 21) in place of the linear probe. Fluorescence was detected using a Tecan Safire^2 using the following settings: excitation wavelength 550 nm, emission wavelength 564 nm, excitation bandwidth 5 nm, emission bandwidth 5 nm, Gain (manual) 120, Number of reads 10, FlashMode High Sensitivity, Integration time 100 μs, lag time 0 μs, Z-position 12000 μm, Temperature 37° C. Development of fluorescence after MfeI addition was monitored over an 8 hour period. […]
# [2] = target: T1, OleD; assay: qPCR DLEnCA, cell-free transcription/translation-derived OleD; format: biochemical
# Experimental: FIG. 4A-FIG. 4D. qPCR DLEnCA and substrate specificity studies. A. Chemicals used as substrates in subsequent assays: (i) known substrates of OleD; (ii) flavone library; (iii) known substrates of GT05 (UGT72B1 (Q9M156)) and GT06 (UGT89B1 (AT1 G73880)). B. DNA encoding OleD (5 nM) was incubated in a cell-free transcription/translation system for 3 hours at 37° C., followed by the addition of chemical (1 mM) and UDP-Glc (2 μM). After a subsequent incubation of 3 hours, TbGT and probe (0.2 nM) were added. After probe purification and MfeI digestion, probe integrity was identified using qPCR. Percent recovery of probe is reported (n=8; error bars=standard error). C. DNA encoding OleD (5 nM) was incubated for 3 hours at 37° C. in a cell-free transcription/translation system, followed by the addition of flavone (1 mM) and UDP-Glc (2 μM). After a subsequent incubation of 3 hours, TbGT and probe (0.2 nM) were added. After probe purification and MfeI addition, probe integrity was identified using qPCR. Percent recovery of probe is reported (n=8; error bars=standard error). D. DNA encoding OleD, GT05, or GT06 (5 nM) were incubated for 3 hours at 37° C. in a cell-free transcription/translation system, followed by the addition of chemical (1 mM) and UDP-Glc (2 μM). After a subsequent incubation of 3 hours, TbGT and probe (0.2 nM) were added. After probe purification and MfeI digestion, probe integrity was identified using qPCR. Percent recovery of probe is reported as a heat map (n=8) (specific recovery figures and percent error can be found in FIG. 16). *=p<0.05 vs. no chemical control.
# PCR tubes were used for most reactions. All incubations were performed at 37° C. Assays were initiated upon the addition of linear DNA (5 nM final concentration) to 4 μl PURExpress Solution A and 3 μl PURExpress Solution B. Samples were incubated at 37° C. for 3 hours prior to addition of UDP-Glucose and chemical (1 mM final concentration) in DMSO. Samples were incubated for an additional 3 hours prior to addition of 1 unit T4 Phage β-glucosyltransferase containing 0.2 nM probe. Samples were incubated an additional 3 hours before DNA was purified using the Zymo DNA Clean and Concentrator Kit. Samples were digested overnight with MfeI prior to analysis. Concentration of intact DNA probe was identified using the iQ SYBR Green Supermix (1708880) with probe DNA as standards. qPCR was carried out on the Bio-Rad iQ5 Multicolor Real-Time PCR Detection System using primers P13 and P14 with the following temperatures; 94° C. 30 seconds followed by 40 cycles of 94° C. 10 seconds and 55° C. for 30 seconds. All results were compared to uncut probe DNA that had been carried through the process as negative controls (considered full recovery of probe).
# The second DLEnCA workflow developed involved qPCR as a final readout (qPCR DLEnCA, FIG. 1—qPCR workflow). A linear fragment of DNA was modified to contain 5-hm-cytosines throughout. To determine a threshold for probe protection under conditions amenable to the qPCR DLEnCA workflow, UDP-Glc was titrated into mixtures of the cell-free transcription/translation system containing 5-hm-cytosine-modified DNA probe (0.2 nM probe DNA containing 0.1 μM modified 5-hm-cytosines) and TbGT. After digestion with the restriction enzyme MfeI, the amount of intact DNA probe was determined using qPCR (FIG. 3C). […] A threshold for protection was identified at a 20:1 molar ratio of UDP-Glc to total 5-hm-cytosine in probe DNA; this UDP-Glc amount was used as the starting concentration of UDP-Glc for all qPCR experiments. To test the feasibility of qPCR DLEnCA, OleD was again tested upon the substrate kaempferol (FIG. 3D), using DNA encoding a promoter and OleD as starting material. As expected, when all components of the assay were present, 27% of intact probe DNA was recovered. […]
# T1 sequence (Q53685 other isoform, or with tags, fused parts or gaps P55A/R82V/R83E/T84P): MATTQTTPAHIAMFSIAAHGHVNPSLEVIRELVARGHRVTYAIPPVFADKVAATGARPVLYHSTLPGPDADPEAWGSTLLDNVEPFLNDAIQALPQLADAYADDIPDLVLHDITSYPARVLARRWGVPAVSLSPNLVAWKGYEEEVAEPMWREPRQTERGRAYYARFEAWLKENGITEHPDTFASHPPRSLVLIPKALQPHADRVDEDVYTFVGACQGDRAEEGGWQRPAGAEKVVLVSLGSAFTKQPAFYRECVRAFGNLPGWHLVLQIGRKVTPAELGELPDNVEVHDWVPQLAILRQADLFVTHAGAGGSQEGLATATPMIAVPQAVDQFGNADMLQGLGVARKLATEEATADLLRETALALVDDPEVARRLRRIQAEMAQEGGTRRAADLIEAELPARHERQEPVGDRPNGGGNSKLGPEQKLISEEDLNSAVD
smiles,measurement,setting,value
"O=c1c(O)c(-c2ccc(O)cc2)oc2cc(O)cc(O)c12 [I, kaempferol]",fluorescent reading after MfeI digestion of FRET probe,[1],50 RFU
same,recovery of intact probe DNA,"[2]; OleD DNA 5 nM, chemical 1 mM, UDP-Glc 2 μM, probe 0.2 nM, low recovery = substrate glucosylated",27%
same,activity of OleD with chemical,"[2]; tested against I, X, XI, XII, qPCR DLEnCA, verified with LCMS",showed activity

# From patent publication US10829798B2, “DNA-linked enzyme-coupled assays” (THE REGENTS OF THE UNIVERSITY OF CALIFORNIA, priority 2014, dated 2020)
